Here are results for 40 compounds from US4031235A, “Insecticidal substituted acetate compounds” (Sumitomo Chemical Company, Limited, priority 1972, dated 1977).

Values after ≈ are worked out from the molar mass of the structure shown. Where two headings read alike, the source gives them in different places.

Common to all, as to assay type: in vivo
In assay [1] the test system is Larvae of Mosquito (Culex pipiens). Description: Insecticidal activity on larvae of mosquito (Experimental Example 2). The conditions noted are these: 24 h, read-out: LC50 (50% lethal concentration). The protocol:
An emulsifiable concentrate was prepared by blending each of the compounds (1) to (300) of the present invention, xylol and Sorpol SM-200 (trade name; manufactured by Toho Chemical Co., Ltd.) in a proportion of 25%, 50% and 25% (by weight), respectively. 20 to 25 day-old rice plants after seeding were grown in pots and sprayed with each 300-fold dilute solution of the emulsifiable concentrates thus prepared and a 300-fold dilute solution of carbaryl 30% wettable powder diluted with water as a control commercial agent in an amount of 10 ml/pot in each case and then the pots were covered by a cylindrical metal net. 15 small brown planthoppers (Delphacodes striatella Fallen) per group were released in each of the pots treated with carbaryl wettable powder, and compound (1) to (21) and (102) to (110), while 15 green rice leafhopper (Nephotettix bipuntatus cincticeps Uhler) per group were released in each of the pots treated with the carbaryl wettable powder and compounds (22) to (101) and (111) to (300).
Of the emulsifiable concentrates prepared in Experimental Example 1, each of those prepared from the compounds of Table 1 below was diluted with water to each of test concentrations and a 200 ml portion thereof was added to a 300 ml volume beaker. 30 larvae of mosquito per group were released in each of the beaker and allowed to stand for 1 day. Survival was observed and a LC50 (50% lethal concentration) was determined by calculating a percent killing in each case. As a control, lindane emulsifiable concentrate was used.

In assay [2] the test system is adult mosquitoes (Culex pipiens). Description: Knock-down of adult mosquitoes by 0.2% oil preparation (Experimental Example 4). Particulars: read-out: mosquitoes knocked down. As for the experimental part:
(§1) 0.2% oil preparation was prepared from each of the compounds (1), (2), (8), (14), (22), (25), (26), (27), (51), (62), (73), (82), (86), (88), to (90), (92), (94), (96), (111), (119), (121), (165), (175), (180), (184), (185), (195), (200), (201), and (208) and allethrin as a control using deodorized kerosene.

In assay [3] the test system is oriental house flies. Kind of assay: Activity on knock-down against oriental house flies (Experimental Example 5). The conditions noted are these: 0.2% oil preparation, 0.7 ml, 1.5 Kg/cm^2, (70 cm)^3 glass box. As for the experimental part: as §1
20 oriental house flies per group were released in a (70 cm)^3 volume glass box and sprayed with each of the oil preparations prepared in Experimental Example 4 from the compounds of Table 3 below and allethrin in an amount of 0.7 ml under a pressure of 1.5 Kg/cm^2.

In assay [4] the test system is oriental house flies. Description: Potentiation of insecticidal activity by addition of piperonyl butoxide, topical application (Experimental Example 6). Particulars: piperonyl butoxide 5 times active ingredient; acetone solution on thoracic dorsal plate. As for the experimental part:
To each of the compounds (22), (51), (62), (63), (82), (86), (125), (150), (160), (176), (177), (178), (184), (185), (191), (195), (200), (201), (204), (208), (210), (212) and (226) was added piperonyl butoxide in an amount of 5 times that of the active ingredient, respectively to prepare an acetone solution having a given concentration. Each of the thus prepared acetone solutions was applied onto a thoracic dosal plate of oriental house flies using a microshringe to observe a synergestic effect on insecticidal activity by piperonyl butoxide.

Setting [5] is: 0.2% oil preparation, 0.7 ml, 1.5 Kg/cm^2, (70 Cm)^3 glass box.

`Cl[C@H]1[C@H](Cl)[C@@H](Cl)[C@@H](Cl)[C@H](Cl)[C@H]1Cl` [Lindane, lindane, reference compound]: in assay [1], the LC50 worked out at 220 ng/mL (≈ 0.756 µM).

For `C=CCC1=C(C)C(OC(=O)C2C(C=C(C)C)C2(C)C)CC1=O` (stereo not drawn) [allethrin, reference compound], the pest or weed control at 0.2 % in assay [2] is over 80%. Also, the “KT50 (50% knock-down time)” value in assay [3] was 186 s. As for `C#CCc1ccc(COC(=O)C(CC)c2ccccc2)cc1` (stereo not drawn) [compound 10, 4'-Propargylbenzyl-α-ethylphenylacetate], the LC50 in assay [1] is 3 ng/mL (≈ 0.0103 µM).

Turning to `CCC(C(=O)OC(C#N)c1cccc(Oc2ccccc2)c1)c1ccccc1` (stereo not drawn) [compound 14, 3'-Phenoxy-α'-cyanobenzyl-α-ethylphenylacetate], the LC50 in assay [1] turned out to be 2.6 ng/mL (≈ 0.007 µM). Moreover, the pest or weed control at 0.2 % in assay [2] (setting [5]) was over 80%. Take `C=CCC1=C(C)C(OC(=O)C(CC)c2ccco2)CC1=O` (stereo not drawn) [compound 16, 2'-Allyl-3'-methyl-2'-cyclopentene-1'-one-4"-yl-α-ethyl-2-furylacetate]: in assay [1], the LC50 was determined as 1.4 ng/mL (≈ 0.00486 µM).

Turning to `CCC(C(=O)OCc1cccc(Oc2ccccc2)c1)c1ccc(OC(C)=O)cc1` (stereo not drawn) [compound 25, 3'-Phenoxybenzyl-α-ethyl-4-acetoxyphenylacetate], the pest or weed control at 0.2 % in assay [2] (setting [5]) was over 80%. The same measure, in the same setting: as for `CCC(C(=O)OCc1coc(Cc2ccccc2)c1)c1ccc([S+](C)[O-])cc1` (stereo not drawn) [compound 26, 5'-Benzyl-3'-furylmethyl-α-ethyl-4-methylsulfoxyphenylacetate], the figure is over 80%; as for `CCC(C(=O)OCN1C(=O)C2=C(CCCC2)C1=O)c1c(C)cc(C)cc1C` (stereo not drawn) [compound 27, 3',4',5',6'-Tetrahydrophthalimidomethyl-2-ethyl-2,4,6-trimethylphenylacetate], over 80%; as for `COc1ccc(C(C(=O)OCN2C(=O)C3=C(CCCC3)C2=O)C(C)C)cc1` (stereo not drawn) [compound 73, 3',4',5',6'-Tetrahydrophthalimidomethyl-α-isopropyl-p-methoxyphenylacetate], over 80%. Take `COc1ccc(C(C(=O)OCc2ccc(Cc3ccccc3)s2)C(C)C)cc1` (stereo not drawn) [compound 86, 5'-Benzyl-2'-thenylmethyl-α-isopropyl-4-methoxyphenylacetate]: the pest or weed control at 0.2 % in assay [2] (setting [5]) was over 80%. For the same compound, the “Potentiation magnification of insecticidal activity by the addition of piperonyl butoxide” value (“Potentiation magnification” for short) in assay [4] stood at 4.5. On to `COc1ccc(C(C(=O)OCc2cccc(Cc3ccccc3)c2)C(C)C)cc1` (stereo not drawn) [compound 89, 3'-Benzylbenzyl-α-isopropyl-4-methoxyphenylacetate], for which the “KT50 (50% knock-down time)” value in assay [3] came to 155 s. On to `C=C(C)C(C(=O)OCN1C(=O)C2=C(CCCC2)C1=O)c1ccc(OC)cc1` (stereo not drawn) [compound 90, 3',4',5',6'-Tetrahydrophthalimidomethyl-α-isopropenyl-4-methoxyphenylacetate], for which the pest or weed control at 0.2 % in assay [2] (setting [5]) was over 80%. The same measure, in the same setting: as for `C=C(C)C(C(=O)OCc1cccc(Cc2ccccc2)c1)c1ccc(OC)cc1` (stereo not drawn) [compound 92, 3'-Benzylbenzyl-α-isopropenyl-4-methoxyphenylacetate], the figure is over 80%; as for `C#CCc1ccc(C(C#C)OC(=O)C(CC)c2ccc(OC)cc2)o1` (stereo not drawn) [compound 94, 5'-Propargyl-α'-ethynylfurfuryl-α-ethyl-4-methoxyphenylacetate], over 80%. Take `CCC(C(=O)OCc1coc(Cc2ccccc2)c1)c1ccc(C)cc1` (stereo not drawn) [compound 102, 5'-Benzyl-3'-furylmethyl-α-ethyl-4-methylphenylacetate]: the LC50 in assay [1] turned out to be 9.5 ng/mL (≈ 0.0273 µM). Same read-out and setting: as for `Cc1ccc(C(C(=O)OCc2coc(Cc3ccccc3)c2)C(C)C)cc1` (stereo not drawn) [compound 103, 5'-Benzyl-3'-furylmethyl-α-isopropyl-4-methylphenylacetate], the figure is 9.2 ng/mL (≈ 0.0254 µM). Take `CCC(C(=O)OCc1coc(Cc2ccccc2)c1)c1cccc(C)c1` (stereo not drawn) [compound 104, 5'-Benzyl-3'-furylmethyl-α-ethyl-3-methylphenylacetate]: in assay [1], the LC50 is 12 ng/mL (≈ 0.0344 µM).

On to `Cc1cccc(C(C(=O)OCc2coc(Cc3ccccc3)c2)C(C)C)c1` (stereo not drawn) [compound 105, 5'-Benzyl-3'-furylmethyl-α-isopropyl-3-methylphenylacetate], for which the LC50 in assay [1] came out at 10.5 ng/mL (≈ 0.029 µM). On the same count and under the same terms, as for `CCC(C(=O)OCc1coc(Cc2ccccc2)c1)c1ccccc1C` (stereo not drawn) [compound 110, 5'-Benzyl-3'-furylmethyl-α-ethyl-2-methylphenylacetate], the figure is 12.5 ng/mL (≈ 0.0359 µM); as for `C=C(C)C(C(=O)OCc1csc(Cc2ccccc2)c1)c1ccc(C)cc1` (stereo not drawn) [compound 112], 4.6 ng/mL (≈ 0.0122 µM); as for `C=C(C)C(C(=O)OCc1coc(Cc2ccco2)c1)c1ccc(C)cc1` (stereo not drawn) [compound 113, 5'-Furfuryl-3'-furylmethyl-α-isopropenyl-4-methylphenylacetate], 5.3 ng/mL (≈ 0.0151 µM). With `C=C(C)C(C(=O)OCc1coc(Oc2ccccc2)c1)c1ccc(C)cc1` (stereo not drawn) [compound 115, 5'-Phenoxy-3'-furylmethyl-α-isopropenyl-4-methyl phenylacetate], the LC50 in assay [1] was 5 ng/mL (≈ 0.0138 µM). For `C=C(C)C(C(=O)OCc1cccc(Oc2ccccc2)c1)c1cccc(Cl)c1` (stereo not drawn) [compound 120, 3'-Phenoxybenzyl-α-isopropenyl-3-chlorophenylacetate], in assay [1], the LC50 is 4 ng/mL (≈ 0.0102 µM).

In the case of `C=C(C)C(C(=O)OCc1cccc(Oc2ccccc2)c1)c1ccc(CC)cc1` (stereo not drawn) [compound 126, 3'-Phenoxybenzyl-α-isopropenyl-4-ethylphenylacetate], the LC50 in assay [1] amounted to 5.6 ng/mL (≈ 0.0145 µM). Still for that read-out and setting: as for `C=C(C)C(C(=O)OCc1coc(Cc2ccccc2)c1)c1ccc(C)cc1` (stereo not drawn) [compound 128, 5'-Benzyl-3'-furylmethyl-α-isopropenyl-4-methylphenylacetate], the figure is 4.7 ng/mL (≈ 0.013 µM). On to `C#CCc1ccc(C(C#C)OC(=O)C(c2ccc(C)cc2)C(C)C)o1` (stereo not drawn) [compound 160], for which, in assay [4], the “Potentiation magnification” value is recorded as 7.2. With `CCC(C(=O)OCc1cccc(Oc2ccccc2)c1)c1ccc(Cl)cc1` (stereo not drawn) [compound 177], the LC50 in assay [1] is 7.4 ng/mL (≈ 0.0194 µM). Besides, the “Potentiation magnification” value in assay [4] turned out to be 5.8. In the case of `CCC(C(=O)OCc1cccc(Oc2ccccc2)c1)c1ccc(Br)cc1` (stereo not drawn) [compound 178], in assay [4], the “Potentiation magnification” value was found to be 5.4. For `Cc1ccc(C(C)C(=O)OCc2coc(Cc3ccccc3)c2)cc1` (stereo not drawn) [compound 181], in assay [1], the LC50 amounted to 82 ng/mL (≈ 0.245 µM). Still for that read-out and setting: as for `Cc1ccc(C(C)C(=O)OCc2cccc(Oc3ccccc3)c2)cc1` (stereo not drawn) [compound 183], the figure is 88.5 ng/mL (≈ 0.255 µM). In the case of `CCC(C(=O)OC1C=C(Cc2ccccc2)C(=O)C1)c1ccc(F)cc1` (stereo not drawn) [compound 191], in assay [4], the “Potentiation magnification” value stood at 4.3. As for `CC(C)C(C(=O)OCc1coc(Cc2ccccc2)c1)c1cccc(Cl)c1` (stereo not drawn) [compound 204], the LC50 in assay [1] turned out to be 7.5 ng/mL (≈ 0.0196 µM). Moreover, the “Potentiation magnification” value in assay [4] is 4.7.

Regarding `CC(C)C(C(=O)OCc1cccc(Oc2ccccc2)c1)c1ccc(F)cc1` (stereo not drawn) [compound 210], the LC50 in assay [1] was 3.5 ng/mL (≈ 0.00925 µM). Moreover, the “Potentiation magnification” value in assay [4] is reported as 4.8. The like results for `CC(C)C(C(=O)OCc1coc(Cc2ccccc2)c1)c1ccc(Br)cc1` (stereo not drawn) [compound 212] were, in that order, 3.7 ng/mL (≈ 0.00866 µM) and 5.0. For the compound `CCc1ccc(C(C(=O)OCc2coc(Cc3ccccc3)c2)C(C)C)cc1` (stereo not drawn) [compound 214], in assay [1], the LC50 worked out at 12.7 ng/mL (≈ 0.0337 µM). Same read-out and setting: as for `CCc1ccc(C(C(=O)OCc2cccc(Oc3ccccc3)c2)C(C)C)cc1` (stereo not drawn) [compound 215], the figure is 13.2 ng/mL (≈ 0.034 µM). For `Cc1ccc(C(C(=O)OCc2ccc(Cc3ccccc3)cc2)C(C)C)cc1` (stereo not drawn) [compound 226], the LC50 in assay [1] is 13.5 ng/mL (≈ 0.0362 µM). In assay [4], the “Potentiation magnification” value is 4.5. For the compound `Cc1ccc(C(C(=O)OC(C#N)c2cccc(Oc3ccccc3)c2)C(C)C)cc1` (stereo not drawn) [compound 227], the LC50 in assay [1] is 1.9 ng/mL (≈ 0.00476 µM).

In the case of `CC(C)C(C(=O)OC(C#N)c1cccc(Oc2ccccc2)c1)c1ccc(Cl)cc1` (stereo not drawn) [compound 231], in assay [1], the LC50 is 1.4 ng/mL (≈ 0.00333 µM). For `CSc1ccc(C(C(=O)OCc2cccc(Oc3ccccc3)c2)C(C)C)cc1` (stereo not drawn) [compound 298], the LC50 in assay [1] turned out to be 9.7 ng/mL (≈ 0.0239 µM).
